Laboratory results from article PMC5693942 (Scientific Reports, 2017).
Values after ≈ are worked out from the molar mass of the structure shown. Read-outs that look alike come from different tables or passages of the source. Blank lines part the entries; values can stand above or below the compound they belong to.

Key:
[1] = in vivo; cited from earlier work
[2] = Activated sludge simulating microcosms (degradation of FL, formation of NFL); format: physicochemical
Protocol: Activated sludge microcosm experiments were conducted in the dark and aerobic conditions. Three microcosm bioreactors were investigated in duplicate. They were filled with 2 L of fresh activated sludge collected from a local wastewater treatment plant. […] Dark conditions were simulated by covering up the flask with foil. Aerobic conditions were obtained using air from BOC air cylinder and a thorough mixing was maintained using magnetic stirrers. The experiment was 24 hours long. […] Collected samples were subsequently frozen until their analysis to prevent degradation of compounds.
The compounds studied are characterized as having low volatility and therefore volatilization was not considered as a potential removal pathway in studied microcosms. Photodegradation was also not considered (not relevant) under tested activated sludge conditions. Therefore the two important degradation mechanisms to consider were biodegradation and sorption to sludge. […] However, in this study, sorption equilibrium was assumed and therefore sorption could be considered negligible. This is because sorption is assumed to be fast when compared to biological degradation.
Several reports utilized pseudo-first-order kinetics for degradation of micropollutants in activated sludge reactors[48]–[50]. […] Pseudo-first order biodegradation rate k1 [L g^−1h^−1]

[3] = River water simulating microcosms (degradation of FL)
Tetrahymena thermophila = assay: microbe, parasite or virus in culture; format: cell-based
Protocol: The tests were performed in accordance with the protocols provided by the manufacturer. […] The tests were carried out in disposable spectrophotometric cells of 1 cm path-length, to enable the measurement of the optical density (OD) at 440 nm. […] This change in OD over the time period is used to quantify the degree of inhibition and subsequent calculation of the EC50. Each concentration was repeated in duplicate.

Daphnia magna = Daphnia magna acute 48 h immobilization assay (Daphtoxkit); format: in vivo; settings: for Average effect (N immobile, 5 daphnids per replicate): 48 h;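 on Average effect (N immobile, 5 daphnids per replicate): test concentrations in mg per L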
Protocol: Six concentration levels (5 concentrations plus control, four replicate beakers for each concentrations, five individual for each beaker) were tested. […] Each experiment was repeated in triplicate.

Compound: NFL glucuronide
excreted in the urine as this species [1]: 8.2%

Concentration ([2]; 10 µg L-1 microcosm, time 0): 0.127 ± 0.015 ng/mL
Concentration ([2]; 10 µg L-1 microcosm, time 0.5): 0.057 ± 0.006 ng/mL
Concentration ([2]; 10 µg L-1 microcosm, time 1.5): 0.010 ± 0.000 ng/mL
Concentration ([2]; 10 µg L-1 microcosm, time 2): 0.151 ± 0.068 ng/mL
Concentration ([2]; 10 µg L-1 microcosm, time 3): 0.222 ± 0.038 ng/mL
Concentration ([2]; 10 µg L-1 microcosm, time 5): 0.384 ± 0.053 ng/mL
Concentration ([2]; 10 µg L-1 microcosm, time 8): 0.315 ± 0.016 ng/mL
Concentration ([2]; 10 µg L-1 microcosm, time 12): 0.562 ± 0.219 ng/mL
Concentration ([2]; 10 µg L-1 microcosm, time 24): 0.510 ± 0.059 ng/mL
Concentration ([2]; 100 µg L-1 microcosm, time 0): 0.553 ± 0.146 ng/mL
Concentration ([2]; 100 µg L-1 microcosm, time 0.5): 0.538 ± 0.149 ng/mL
Concentration ([2]; 100 µg L-1 microcosm, time 1): 0.737 ± 0.154 ng/mL
Concentration ([2]; 100 µg L-1 microcosm, time 1.5): 0.981 ± 0.052 ng/mL
Concentration ([2]; 100 µg L-1 microcosm, time 2): 1.890 ± 0.622 ng/mL
Concentration ([2]; 100 µg L-1 microcosm, time 3): 2.515 ± 1.049 ng/mL
Concentration ([2]; 100 µg L-1 microcosm, time 5): 3.535 ± 1.300 ng/mL
Concentration ([2]; 100 µg L-1 microcosm, time 8): 3.844 ± 1.117 ng/mL
Concentration ([2]; 100 µg L-1 microcosm, time 12): 5.346 ± 0.464 ng/mL
Concentration ([2]; 100 µg L-1 microcosm, time 24): 5.046 ± 0.415 ng/mL
Concentration ([3]; DBR (dark biotic), day 3): 0.001 ± 0.000 ng/mL
Concentration ([3]; DBR (dark biotic), day 5): 0.001 ± 0.000 ng/mL
Concentration ([3]; LAR (light abiotic), day 3): 0.002 ± 0.001 ng/mL
Concentration ([3]; LAR (light abiotic), day 4): 0.001 ± 0.000 ng/mL
Concentration ([3]; LAR (light abiotic), day 12): 0.002 ± 0.001 ng/mL
Concentration ([3]; LAR (light abiotic), day 16): 0.001 ± 0.000 ng/mL
Concentration ([3]; LBR (light biotic), day 3): 0.001 ± 0.000 ng/mL
Concentration ([3]; LBR (light biotic), day 5): 0.001 ± 0.000 ng/mL
Compound: NCC[C@H](Oc1ccc(C(F)(F)F)cc1)c1ccccc1 [(S)-NFL]
times more toxic than (S)-FL (Tetrahymena thermophila; Tetrahymena thermophila): 10 ×
EC50 (Tetrahymena thermophila; Tetrahymena thermophila, T. thermophila, this study, read-out: EC50_24h -growth): 3.8 µg/mL (≈ 12.9 µM)
EC50 (Tetrahymena thermophila; Tetrahymena thermophila, definitive test, read-out: 24hEC50): 4.48 µg/mL (≈ 15.2 µM)
EC50 (Tetrahymena thermophila; Tetrahymena thermophila, range test, read-out: 24hEC50): 1.98 µg/mL (≈ 6.71 µM)
% I (percentage inhibition) (Tetrahymena thermophila; definitive test, conc. 0.093): 7.356%
% I (percentage inhibition) (Tetrahymena thermophila; definitive test, conc. 0.279): 12.473%
% I (percentage inhibition) (Tetrahymena thermophila; definitive test, conc. 9.302): 28.891%
% I (percentage inhibition) (Tetrahymena thermophila; definitive test, conc. 15.352): 47.228%
% I (percentage inhibition) (Tetrahymena thermophila; definitive test, conc. 24.562): 80.171%
% I (percentage inhibition) (Tetrahymena thermophila; definitive test, conc. 50.660): 101.066%
% I (percentage inhibition) (Tetrahymena thermophila; definitive test, conc. 76.758): 104.371%
% I (percentage inhibition) (Tetrahymena thermophila; range test, conc. 0.005): 34.102%
% I (percentage inhibition) (Tetrahymena thermophila; range test, conc. 0.050): 7.524%
% I (percentage inhibition) (Tetrahymena thermophila; range test, conc. 0.500): 10.316%
% I (percentage inhibition) (Tetrahymena thermophila; range test, conc. 5.000): 39.684%
% I (percentage inhibition) (Tetrahymena thermophila; range test, conc. 50.000): 105.825%
Average effect (N immobile, 5 daphnids per replicate) (Daphnia magna; concentration 0.5): 0.25
Average effect (N immobile, 5 daphnids per replicate) (Daphnia magna; concentration 1.5): 1
Average effect (N immobile, 5 daphnids per replicate) (Daphnia magna; concentration 5): 4
Average effect (N immobile, 5 daphnids per replicate) (Daphnia magna; concentration 16): 5
Average effect (N immobile, 5 daphnids per replicate) (Daphnia magna; concentration 50): 5
EC50 (Daphnia magna; Daphnia magna, D. magna, this study, read-out: EC50_48h -immobilization): 2.8 µg/mL (≈ 9.48 µM)

Compound: FL glucuronide
excreted in the urine as this species [1]: 7.4%
